# Results published in ChEMBL document CHEMBL4321876 (J Med Chem, 2020).
# pIC50: −log10 of the molar value. Active and inactive are the calls of the source. The calls are words filed in the database; no cut-off is given here.
# Columns and labels:
# [1] = molecular target: T1, Histone acetyltransferase p300 (Homo sapiens, UniProt Q09472); experiment: Binding affinity to p300 in human MV4-11 cells assessed as stabilization of protein measured after 12 hrs by CETSA; assay type: cell-based
# [2] = molecular target: T1, Histone acetyltransferase p300; experiment: Inhibition of p300 (unknown origin) using histone H3 (1 to 21 residues) as substrate preincubated for 15 mins followed by substrate and [3H]acetyl-CoA addition and measured after 60 mins by scintillation counting analysis
# MV4-11 [3] = experiment: Antiproliferative activity against human MV4-11 cells measured after 3 days by celltiter-glo luminescence assay; assay type: functional, cell-based; conditions: MV4-11, 72 h
# [4] = Intrinsic clearance in human liver microsomes assessed per mg protein at 0.1 uM preincubated for 10 mins followed by NADPH addition and measured up to 60 mins by UPLC-MS/MS analysis; assay type: ADME, Microsome; conditions: read-out: CLH
# [5] = Intrinsic clearance in rat liver microsomes assessed per mg protein at 0.1 uM preincubated for 10 mins followed by NADPH addition and measured up to 60 mins by UPLC-MS/MS analysis; assay type: ADME, Microsome; conditions: read-out: CLH
# [6] = Intrinsic clearance in mouse liver microsomes assessed per mg protein at 0.1 uM preincubated for 10 mins followed by NADPH addition and measured up to 60 mins by UPLC-MS/MS analysis; assay type: ADME, Microsome; conditions: read-out: CLH
# [7] = Half life in Sprague-Dawley rat at 1 mg/kg, iv by LC-MS/MS analysis; assay type: ADME, organism-based; conditions: in vivo
# [8] = Volume of distribution at steady state in Sprague-Dawley rat at 1 mg/kg, iv by LC-MS/MS analysis; assay type: ADME, organism-based; conditions: in vivo, read-out: Vdss
# [9] = AUClast in Sprague-Dawley rat at 1 mg/kg, iv by LC-MS/MS analysis; assay type: ADME, organism-based; set-up: dose 1 mg/kg, route intravenous, time 0 - last; conditions: in vivo
# [10] = Clearance in Sprague-Dawley rat at 1 mg/kg, iv by LC-MS/MS analysis; assay type: ADME, organism-based; conditions: in vivo
# [11] = Half life in Sprague-Dawley rat at 3 mg/kg, po by LC-MS/MS analysis; assay type: ADME, organism-based; conditions: in vivo
# [12] = Tmax in Sprague-Dawley rat at 3 mg/kg, po by LC-MS/MS analysis; assay type: ADME, organism-based; conditions: in vivo
# [13] = Cmax in Sprague-Dawley rat at 3 mg/kg, po by LC-MS/MS analysis; assay type: ADME, organism-based; set-up: dose 3 mg/kg, route oral; conditions: in vivo
# [14] = AUClast in Sprague-Dawley rat at 3 mg/kg, po by LC-MS/MS analysis; assay type: ADME, organism-based; set-up: dose 3 mg/kg, time 0 - last, route oral; conditions: in vivo
# [15] = Oral bioavailability in Sprague-Dawley rat at 3 mg/kg by LC-MS/MS analysis; assay type: ADME, organism-based; conditions: in vivo
# [16] = Protein binding in rat plasma; assay type: ADME, cell-free; conditions: read-out: PPB (converted)
# [17] = molecular target: T1, Histone acetyltransferase p300; experiment: Inhibition of p300 in human MV4-11 cells assessed as decrease in H3K27 acetylation measured after 6 hrs by Western blot analysis; assay type: cell-based
# [18] = molecular target: T1, Histone acetyltransferase p300; experiment: Inhibition of p300 in human MV4-11 cells assessed as decrease in MYC mRNA level at 0.2 to 1 uM measured after 24 hrs by SYBR dye-based qRT-PCR analysis; assay type: cell-based
# Maver1 = experiment: Antiproliferative activity against human Maver1 cells measured after 3 days by celltiter-glo luminescence assay; assay type: functional, cell-based; conditions: Maver1, 72 h
# K562 = experiment: Antiproliferative activity against human K562 cells measured after 3 days by celltiter-glo luminescence assay; assay type: functional, cell-based; conditions: K562, 72 h
# Kasumi 1 = experiment: Antiproliferative activity against human Kasumi-1 cells measured after 3 days by celltiter-glo luminescence assay; assay type: functional, cell-based; conditions: Kasumi 1, 72 h
# HT = experiment: Antiproliferative activity against human HT cells measured after 3 days by celltiter-glo luminescence assay; assay type: functional, cell-based; conditions: 72 h
# LNCaP-Clone-FGC = experiment: Antiproliferative activity against human LNCaP-FGC cells measured after 5 days by celltiter-glo luminescence assay; assay type: functional, cell-based; conditions: 120 h
# CWR22R = experiment: Antiproliferative activity against human 22Rv1 cells measured after 3 days by celltiter-glo luminescence assay; assay type: functional, cell-based; conditions: 22Rv1, 72 h
# [19] = molecular target: Voltage-gated inwardly rectifying potassium channel KCNH2 (Homo sapiens, UniProt Q12809); experiment: Inhibition of human ERG
# MV4-11 [20] = experiment: Antitumor activity against human MV4-11 cells xenografted in Balb/c mouse assessed as tumor growth inhibition at 100 mg/kg, po administered for 28 days measured twice daily during compound dosing relative to control; assay type: functional; conditions: MV4-11, po, 672 h, read-out: TGI
# MV4-11 [21] = experiment: Antitumor activity against human MV4-11 cells xenografted in Balb/c mouse assessed as tumor growth inhibition at 50 mg/kg, po administered for 28 days measured twice daily during compound dosing relative to control; assay type: functional; conditions: MV4-11, po, 672 h, read-out: TGI
# [22] = Toxicity in human MV4-11 cells xenografted Balb/c mouse assessed as body weight loss at 50 to 100 mg/kg, po administered for 28 days measured twice daily during compound dosing; assay type: organism-based; conditions: in vivo, 672 h
# [23] = Toxicity in human MV4-11 cells xenografted Balb/c mouse assessed as adverse effect at 50 to 100 mg/kg, po administered for 28 days; assay type: organism-based; conditions: in vivo, 672 h
# T1 sequence (Q09472 whole entry, the tested form may be a part): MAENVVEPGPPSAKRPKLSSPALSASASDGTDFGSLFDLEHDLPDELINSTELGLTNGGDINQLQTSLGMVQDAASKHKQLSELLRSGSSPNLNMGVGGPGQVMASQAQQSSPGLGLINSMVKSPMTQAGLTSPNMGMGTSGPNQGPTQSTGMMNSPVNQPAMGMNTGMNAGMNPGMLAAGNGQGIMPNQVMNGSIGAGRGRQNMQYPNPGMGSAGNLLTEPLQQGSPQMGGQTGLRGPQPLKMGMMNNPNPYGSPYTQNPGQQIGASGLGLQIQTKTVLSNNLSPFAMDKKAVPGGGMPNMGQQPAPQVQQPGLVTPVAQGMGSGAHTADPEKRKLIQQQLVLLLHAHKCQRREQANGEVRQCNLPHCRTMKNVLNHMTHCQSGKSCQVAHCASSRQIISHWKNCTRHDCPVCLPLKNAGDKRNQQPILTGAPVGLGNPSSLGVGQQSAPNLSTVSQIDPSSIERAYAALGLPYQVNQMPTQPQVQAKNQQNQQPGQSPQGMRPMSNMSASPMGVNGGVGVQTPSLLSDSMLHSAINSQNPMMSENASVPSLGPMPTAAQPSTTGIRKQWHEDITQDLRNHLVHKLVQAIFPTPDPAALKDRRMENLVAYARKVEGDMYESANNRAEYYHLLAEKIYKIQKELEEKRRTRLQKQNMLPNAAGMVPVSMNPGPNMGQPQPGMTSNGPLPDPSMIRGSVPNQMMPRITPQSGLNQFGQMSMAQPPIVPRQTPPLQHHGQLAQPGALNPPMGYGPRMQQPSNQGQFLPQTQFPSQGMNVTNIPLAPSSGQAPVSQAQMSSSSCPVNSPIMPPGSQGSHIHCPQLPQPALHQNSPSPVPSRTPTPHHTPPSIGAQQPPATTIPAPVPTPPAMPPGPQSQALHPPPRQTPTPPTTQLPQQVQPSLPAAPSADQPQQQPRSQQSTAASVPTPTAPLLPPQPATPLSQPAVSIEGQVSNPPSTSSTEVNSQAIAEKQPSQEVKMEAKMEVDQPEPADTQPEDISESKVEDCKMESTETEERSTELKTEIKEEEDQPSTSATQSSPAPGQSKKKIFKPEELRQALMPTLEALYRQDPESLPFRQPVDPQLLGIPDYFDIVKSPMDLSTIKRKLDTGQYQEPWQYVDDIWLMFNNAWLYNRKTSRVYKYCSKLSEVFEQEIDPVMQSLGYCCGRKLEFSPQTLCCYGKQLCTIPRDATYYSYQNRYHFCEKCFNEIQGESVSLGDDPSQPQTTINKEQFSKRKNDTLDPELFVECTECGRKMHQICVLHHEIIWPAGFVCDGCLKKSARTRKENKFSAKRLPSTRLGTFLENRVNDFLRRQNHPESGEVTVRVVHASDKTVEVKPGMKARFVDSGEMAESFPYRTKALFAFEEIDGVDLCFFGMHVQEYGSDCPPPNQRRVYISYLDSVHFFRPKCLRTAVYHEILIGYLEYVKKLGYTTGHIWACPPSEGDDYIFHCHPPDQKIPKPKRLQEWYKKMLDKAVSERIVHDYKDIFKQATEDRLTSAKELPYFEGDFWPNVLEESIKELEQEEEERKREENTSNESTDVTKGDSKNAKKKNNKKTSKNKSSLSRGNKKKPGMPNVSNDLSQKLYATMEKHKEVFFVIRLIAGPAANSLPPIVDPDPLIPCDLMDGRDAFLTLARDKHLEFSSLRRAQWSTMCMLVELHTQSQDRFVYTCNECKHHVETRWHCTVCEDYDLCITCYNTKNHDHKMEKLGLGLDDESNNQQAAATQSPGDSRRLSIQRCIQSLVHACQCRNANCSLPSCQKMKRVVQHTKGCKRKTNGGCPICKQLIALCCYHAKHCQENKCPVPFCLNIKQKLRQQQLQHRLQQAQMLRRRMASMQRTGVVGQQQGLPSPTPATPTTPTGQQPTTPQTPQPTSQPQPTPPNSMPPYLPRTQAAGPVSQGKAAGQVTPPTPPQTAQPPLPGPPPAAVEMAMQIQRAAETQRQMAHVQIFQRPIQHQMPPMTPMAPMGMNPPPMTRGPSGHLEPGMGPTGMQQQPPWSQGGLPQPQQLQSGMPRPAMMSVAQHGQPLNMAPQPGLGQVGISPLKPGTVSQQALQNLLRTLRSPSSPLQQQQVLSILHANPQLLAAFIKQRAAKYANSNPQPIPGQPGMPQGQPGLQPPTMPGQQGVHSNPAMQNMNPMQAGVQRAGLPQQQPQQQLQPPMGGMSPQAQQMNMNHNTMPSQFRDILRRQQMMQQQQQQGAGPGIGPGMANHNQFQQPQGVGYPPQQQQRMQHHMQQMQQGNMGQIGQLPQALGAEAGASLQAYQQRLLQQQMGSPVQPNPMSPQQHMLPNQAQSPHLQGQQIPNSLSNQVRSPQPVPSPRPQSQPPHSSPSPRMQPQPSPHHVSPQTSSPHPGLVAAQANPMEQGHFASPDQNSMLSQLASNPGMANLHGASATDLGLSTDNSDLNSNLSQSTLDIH
# Sequence of Voltage-gated inwardly rectifying potassium channel KCNH2 (Q12809 whole entry): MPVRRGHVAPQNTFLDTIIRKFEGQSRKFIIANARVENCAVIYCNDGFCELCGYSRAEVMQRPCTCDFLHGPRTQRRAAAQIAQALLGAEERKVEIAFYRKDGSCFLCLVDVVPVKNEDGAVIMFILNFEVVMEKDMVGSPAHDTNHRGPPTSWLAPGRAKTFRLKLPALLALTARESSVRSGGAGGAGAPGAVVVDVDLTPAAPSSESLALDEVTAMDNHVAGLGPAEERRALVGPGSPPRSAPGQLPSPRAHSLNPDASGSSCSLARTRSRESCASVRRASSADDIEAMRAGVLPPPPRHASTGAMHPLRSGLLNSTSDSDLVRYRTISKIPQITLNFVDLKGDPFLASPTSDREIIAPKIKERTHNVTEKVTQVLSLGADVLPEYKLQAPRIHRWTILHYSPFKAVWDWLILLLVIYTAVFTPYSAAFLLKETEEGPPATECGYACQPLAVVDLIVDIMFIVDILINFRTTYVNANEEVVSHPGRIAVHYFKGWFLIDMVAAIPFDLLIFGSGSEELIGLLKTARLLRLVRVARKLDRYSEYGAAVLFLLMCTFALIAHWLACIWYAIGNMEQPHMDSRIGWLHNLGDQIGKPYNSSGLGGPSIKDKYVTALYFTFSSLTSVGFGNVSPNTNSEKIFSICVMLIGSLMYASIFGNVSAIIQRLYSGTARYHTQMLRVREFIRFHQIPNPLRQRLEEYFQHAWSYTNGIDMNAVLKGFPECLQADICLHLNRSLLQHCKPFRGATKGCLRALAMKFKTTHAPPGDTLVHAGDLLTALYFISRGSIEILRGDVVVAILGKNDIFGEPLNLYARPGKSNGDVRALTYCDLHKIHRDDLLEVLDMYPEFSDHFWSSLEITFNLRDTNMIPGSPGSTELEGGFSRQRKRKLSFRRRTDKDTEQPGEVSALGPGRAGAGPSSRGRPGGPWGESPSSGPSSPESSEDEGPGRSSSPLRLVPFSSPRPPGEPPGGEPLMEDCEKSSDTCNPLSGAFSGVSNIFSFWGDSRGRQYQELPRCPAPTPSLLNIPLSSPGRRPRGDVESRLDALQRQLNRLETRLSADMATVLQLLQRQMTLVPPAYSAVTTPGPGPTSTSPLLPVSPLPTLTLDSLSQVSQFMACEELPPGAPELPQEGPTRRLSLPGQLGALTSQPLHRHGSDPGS
smiles,measurement,setting,value
Cn1cc(-c2ccc3c(c2)CC[C@]32NC(=O)N(CC(=O)N3Cc4cc(F)ccc4OC[C@H]3C(F)(F)F)C2=O)cn1,Activity,[1],Dose-dependent effect
same,pIC50,[2],8.74
same,pIC50,MV4-11 [3],8.38
same,microsomal CLint at 0.1 µM,[4],18.2 µL/min/mg
same,microsomal CLint at 0.1 µM,[5],32.7 µL/min/mg
same,microsomal CLint at 0.1 µM,[6],36.8 µL/min/mg
same,half-life,[7],1.5 h
same,Vd,[8],1.5 L/kg
same,AUC(0-t),[9],2.22 µM·h
same,clearance,[10],13.4 mL/min/kg
same,half-life,[11],1.02 h
same,Tmax,[12],0.83 h
same,Cmax,[13],1120 nM
same,AUC(0-t),[14],3.71 µM·h
same,bioavailability,[15],56%
same,fraction unbound,[16],0.018
same,inhibition,[17],Dose-dependent effect
same,inhibition,[18],Active
same,pIC50,Maver1,8.59
same,pIC50,K562,6.98
same,pIC50,Kasumi 1,7.39
same,pIC50,HT,< 5.00
same,pIC50,LNCaP-Clone-FGC,8.01
same,pIC50,CWR22R,8.36
same,pIC50,[19],< 4.40
same,inhibition in vivo at 100 mg/kg,MV4-11 [20],85.7%
same,inhibition in vivo at 50 mg/kg,MV4-11 [21],75%
same,Activity,[22],Non-Toxic
same,Activity,[23],Non-Toxic
